The test system of one series is P. falciparum 3D7. Nature of the series: Plasmodium falciparum growth inhibition assay (SYBR Green I), 3D7. The settings on record: 3D7, 72 h, read-out: EC50 3D7(M).
A further series deals with HepG2 human hepatocytes. Nature of the series: HepG2 cytotoxicity assay (MTS). In kind it is cell-based. The conditions noted are these: 48 h, mean +/- SD. The method, then:
HepG2 cytotoxicity assay: Mammalian cell cytotoxicity was assessed in HepG2 human hepatocytes using an MTS 3-(4,5-dimethylthiazol-2-yl)-5-(3-carboxymethoxyphenyl)-2-(4-sulfophenyl)-2H-tetrazolium)-based cytotoxicity assay. For cytotoxicity testing, ∼2250 cells were seeded into each well of a 384-well microtiter plate and incubated for 24 h. Serial dilutions of the compounds were added in triplicate starting at 25 μM. Cells were further incubated for an additional 48 h at 37 °C in an atmosphere containing 5% CO2. Zero-growth control wells were incubated with 5% Triton X-100 for 5 min prior to MTS addition. Following the addition of MTS to all wells, the plates were incubated for an additional 4 h under the same environmental conditions before taking absorbance measurements. Absorbance values were recorded at 490 nm using a Synergy Neo2 multimode reader (BioTek), and values were normalized based on Triton X-100-lysed and no treatment controls. Samples were run in triplicate in each assay, and the experiments were repeated three times.

The next series has as its system C. parvum. Put plainly: C. parvum growth inhibition assay (Cp-NLuc-infected HCT-8 cells). The series is classed as cell-based, Cryptosporidium parvum. The settings on record: for EC50: Cryptosporidium parvum. The procedure: C. parvum growth inhibition assays: The in vitro growth inhibition assay of C. parvum has been previously described. Briefly, clear-bottom, white-sided 96 well plates were seeded with HCT-8 cells. Once the cells reached between 50% and 75% confluency, they were infected with Cp-NLuc oocysts (10,000/well) in complete media containing 0.6% taurocholate. At 24 h post-infection (hpi), the infected cells were treated with compounds at various concentrations. DMSO was used as a vehicle control in parallel. Parasite growth was determined at 72 hpi by measuring relative luminescence units (RLUs) using Promega Nano-Glo substrate (Promega, Madison, WI, USA) and a SpectraMax® L Microplate Reader (Molecular Devices, San Jose, CA, USA). The percent inhibition of parasite growth was calculated as [(RLUDMSO − RLUcompound)/RLUDMSO] × 100.

The next series deals with HFF cells. Nature of the series: HFF cytotoxicity assay. The series is classed as cell-based. The procedure:
(§1) HCT-8 and HFF cytotoxicity assays: Cytotoxicity of the compounds was determined against both confluent (the conditions of the infection assays) and growing HCT-8 and HFF host cells, as previously described. Cells were seeded into white-sided, clear-bottom 96-well plates and grown to either 40% or 100% confluency. Compounds were added to cells at various concentrations up to 100 µM in a final DMSO concentration of 0.5%. DMSO was run in parallel as a vehicle control. After 48 h, the viability of the cells was determined by either quantification of cellular ATP (Cell-Titer Glo cell viability assay; Promega, Madison WI, USA) or by MTT assay. Viability was determined 24 h after compound addition to HFF cells or 48 h after compound addition to HCT-8 cells or HepG2 cells. The percent cell growth was then calculated with the following formula: % Cell Growth = [RLUcompound/RLUDMSO] × 100. Samples were run in triplicate with two to three biological replicates.

Series [1] has as its system G. lamblia WBC6 and CBG99 trophozoites. Nature of the series: Giardia lamblia trophozoite growth inhibition assay. In kind it is cell-based. The conditions noted are these: 72 h. The method, then: Compound inhibition assay against Giardia lamblia WBC6 and CBG99 trophozoites: Biological replicates of growth inhibition assays were performed using wild-type G. lamblia WBC6 and G. lamblia CBG99 trophozoites at 37 °C under reduced oxygen conditions in a sealed 0.5 mL airtight sterile tube (USA Scientific, Ocala, FL, USA), following the susceptibility assay described below. G. lamblia trophozoites were grown in TYI-S-33 medium supplemented with 10% bovine serum and 0.05 mg/mL bovine bile, as previously described. A 3-fold serial concentration of pure compounds starting at 29 µM was screened against 75,000 cells/mL of parasites in modified TYI-S-33 medium with a final dimethyl sulfoxide (DMSO) concentration of 0.14%. Metronidazole was run in parallel at a final highest concentration of 66.7 µM and 3-fold subsequent serial dilutions. The untreated negative control contained 0.14% of DMSO. Sealable test tubes filled to its maximum volume of 700 µL were used to perform this assay. The test tubes were incubated at 37 °C for 72 h. After incubation, the tubes were chilled on ice, and the reaction was transferred to 96-well plates. In the plate, 50 µL of an ATP binding luminescence marker, CellTiter-Glo (Promega, Madison, WI, USA) or 10 µL of 2.5 mg/mL d-luciferin (GoldBio, St Louis, MO, USA) was added to each well and allowed to develop at room temperature for 10 min [31, 36]. The assay was read and analyzed using an EnVision Plate Reader (Perkin Elmer, Waltham, MA, USA). Response curves and EC50 values (the concentration at which 50% of G. lamblia trophozoite growth was inhibited) were calculated using GraphPad Prism (GraphPad, LaJolla, CA, USA).

For the next series, the system named is HuF fibroblast cell line. The settings on record: cited from earlier work.
The next series has as its system T. gondii. Nature of the series: T. gondii growth inhibition assay (TgRH-Luc:GFP-infected HFF cells). The series is classed as cell-based. The conditions noted are these: Toxoplasma gondii, 10 µM to 156 nM, Figure 2E. The method, then:
T. gondii growth inhibition assays: The T. gondii inhibition assay was described previously. Briefly, HFF cells were seeded onto white-sided, clear-bottom 96 well plates, grown to confluence, and then 5000 TgRH-Luc:GFP parasites were added to each well. At 24 hpi, compounds or DMSO were added. The growth of the parasites was determined by relative luminescence at 48 hpi using Promega Bright-Glo (Promega, Madison, WI, USA) substrate. Plates were read, and the percent inhibition of parasite growth was calculated as described above. Determination of -static versus -cidal activity was conducted as indicated above, with parasite growth quantified after 48 h of infection. Each sample was run in triplicate, and each experiment was repeated three times.

Another series relates to P. falciparum line Dd2. Put plainly: Plasmodium falciparum growth inhibition assay (SYBR Green I), Dd2.
A further series in a line: HCT-8 cytotoxicity assay. In kind it is cell-based. The settings on record: human; sub-confluent (~40% confluency); read-out: EC50 cytotoxicity against sub-confluent HCT-8 cells. The procedure: as §1
In the next series the test system is HCT-8 cells. Put plainly: HCT-8 cytotoxicity assay. The series is classed as cell-based. The procedure:
as §1

The source of these data is article PMC12654037, “Norditerpene Natural Products from Subterranean Fungi with Anti-Parasitic Activity” (Microorganisms, 2025).

Where two headings read alike, the source gives them in different places. A value given as a limit tells only on which side of the number the result lay.

Experimental for P. falciparum 3D7: (§2) Plasmodium falciparum growth inhibition assay: Antiplasmodial EC50 results were determined using a fluorescence-based SYBR Green I assay performed using asynchronous cultures [30, 35]. […] Plates were subsequently frozen at −80 °C to facilitate lysis. […] Relative fluorescence units (RFUs) were normalized based on chloroquine-treated and no treatment controls. Serial dilutions of compounds were prepared in RPMI with final assay conditions of ≤0.2% DMSO. Each assay was conducted in triplicate with three biological replicates.
Experimental for P. falciparum line Dd2: as §2

The EC50 is the concentration needed to bring the measured effect to its halfway point. `CO[C@H]1OC(=O)C=C2C1=C[C@H]1OC(=O)[C@@]3(C)CCC[C@@]2(C)[C@@H]13` [compound 7, oidiolactone B]: the EC50 with P. falciparum 3D7 is 1.22e-06 ± 4.19e-07 M; in the series on C. parvum (HCT-8, abstract, read-out: EC50 against C. parvum), 0.24 µM; with C. parvum (Cp-NLuc-infected HCT-8 cells, 7.5 µM to 117 nM, Figure 2E, read-out: C. parvum EC50), 0.238 µM; in the series with T. gondii, 0.58 µM; in the series on P. falciparum line Dd2 (Plasmodium falciparum, DD2, 72 h, read-out: EC50 Dd2 (M)) it was 9.83e-07 ± 1.11e-07 M. Besides, in the series with HepG2 human hepatocytes, the TC50 HepG2 is 10.3 ± 2.19 µM. Further, the “increase in inhibitory activity against C. parvum versus oidiolactone A” value in the series with C. parvum (7,8 double bond vs. 7α,8α-epoxy group) is listed as 2 fold. Further, the “TC50 HFF (confluent)” value in the series with HFF cells (confluent) is reported as above 30 µM. Besides, the “toxicity to host cells (no toxicity up to)” value is recorded as above 100 µM in the series with HFF cells (confluent HFF, conditions of the infection assay, 24 h, cellular ATP) and above 100 µM in the series with HCT-8 cells (confluent HCT-8, conditions of the infection assay, 48 h, cellular ATP). For the same compound, the “cytotoxicity against sub-confluent HFF” value in the series on HFF cells (sub-confluent) was “no cytotoxicity observed”. For the same compound, in series [1], the “activity against G. lamblia (no activity up to)” value is reported as above 29 µM. For the same compound, in the series on HuF fibroblast cell line, the “cytotoxicity against human fibroblast” value is “no cytotoxicity observed”. Further, the “TC50 HuF (sub-confluent)” value in the series on HuF fibroblast cell line (sub-confluent, ref Rusman et al. 2020 [25]) is 21.4 ± .9 µM. In addition, the “SI: selectivity index=EC50 HepG2/ EC50 compound” value in the series with P. falciparum line Dd2 is 11. In addition, the EC50 at 48 h in the series “HCT-8 cytotoxicity assay” turned out to be 2.1 µM. Besides, the “TC50 HCT-8 (confluent)” value with HCT-8 cells (confluent) was above 30 µM. In addition, the “more cytotoxic towards host HCT-8 cells versus oidiolactone A” value with HCT-8 cells (non-confluent conditions) is given as ~ 15 x. Besides, in the series on HCT-8 cells (sub-confluent), the “TC50 HCT-8 (sub-confluent)” value worked out at 2.1 ± 0.3 µM.
